For 26 molecules, IC50 results are on record in patent EP4813980A1, “EP300/CBP REGULATOR, AND PREPARATION METHOD THEREFOR AND USE THEREOF” (Miracure Biotechnology Limited, priority 2023, dated 2025).

One assay deals with 22RV1 cells. The experiment in a line: Cell growth inhibition, CellTiter-Glo, 72 h. The assay is classed as cell-based. Particulars: 72 h culture, mean of N=2. How it is done: (§1) 22RV1, vCap, MM1S and OPM-2 cells were cultured in RPMI-1640 medium (10% fetal bovine serum and 100 units of penicillin/streptomycin dual-antibody per mL were added to RPMI-1640) in a cell incubator at 37°C with 5% CO2, respectively. Cells in logarithmic growth phase were seeded into 96-well cell culture plates at 5×10^3 cells/100 µL/well and cultured overnight. Active compounds dissolved in DMSO at different concentrations were added with a final concentration of 0.5% DMSO. 1% Tween 20 was used as positive control and 0.5% DMSO was used as negative control. After 72 h of culture, an equal volume of CellTiter-Glo was added to each well, mixed by shaking for 2 min, and left standing at room temperature for 10 min. […] signal values were read with a microplate reader. Data were analyzed and graphs were generated using Prism 7.0. The values shown are mean ± SEM (N=2). […] The formula for inhibition rate is as follows: % Inhibition = (Icompound−IZPE)/(IHPE−IZPE) × 100 [formula]
(§2) The X-axis is compound concentration (nM), and the Y-axis is % Inhibition.

A further assay concerns vCap cells. Nature of the assay: Cell growth inhibition, CellTiter-Glo, 72 h. The note with it: 72 h culture, mean of N=2. The assay is classed as cell-based. As for the experimental part: as §1, §2
In general terms: Cellular ATP, detected with luciferase, serves as a proxy for viable cell number.

As a reminder, the IC50 is the point on the concentration scale where inhibition reaches its midpoint. High values mean weaker potency in that assay, low ones greater potency in that assay. For “3-{5-[8-(4-{2-acetyl-7-[7-(difluoromethyl)-6-(1-methylpyrazol-4-yl)-3,4-dihydro-2H-quinolin-1-yl]-1,3-dihydroisoindol-5-yl}piperidin-1-yl)-8-oxo-1-yn-1-yl]-3-methyl-2-oxo-1,3-benzodiazol-1-yl}piperidine-2,6-dione [Compound 2030]”, the IC50 with 22RV1 cells turned out to be 0.34 nM; in the assay with vCap cells, 0.1 nM.

In turn, `CC(=O)N1Cc2cc(C3CCN(CC4CCN(CCOc5ccc(N6CCC(=O)NC6=O)cc5)CC4)CC3)cc(N3CCCc4cc(-c5cnn(C)c5)c(C(F)F)cc43)c2C1` [Compound 2072] yielded an IC50 with 22RV1 cells (Homo sapiens) of 2020 nM. That is a single-digit micromolar value.

For `CC(=O)N1Cc2cc(C3CCN(CC4CCN(c5cccc6c5CN(C5CCC(=O)NC5=O)C6=O)CC4)CC3)cc(N3CCCc4cc(-c5cnn(C)c5)c(C(F)F)cc43)c2C1` (centres unmarked) [Compound 2047], in the assay with 22RV1 cells (Homo sapiens), the IC50 is over 10000 nM.

As to `CC(=O)N1Cc2cc(C3CCC(N4C(=O)C=CC4=O)CC3)cc(N3CCCc4cc(-c5cnn(C)c5)c(C(F)F)cc43)c2C1` (centres unmarked) [Compound 1385, 1-(4-{2-acetyl-7-[7-(difluoromethyl)-6-(1-methylpyrazol-4-yl)-3,4-dihydro-2H-quinolin-1-yl]-1,3-dihydroisoindol-5-yl}cyclohexyl)pyrrole-2,5-dione], the IC50 was 358 nM in the assay with 22RV1 cells (Homo sapiens) and 144 nM with vCap cells (Homo sapiens).

Regarding `CC(=O)N1CCc2cc(C3CCN(C(=O)CCCCCCCNc4ccc5c(c4)C(=O)N(C4CCC(=O)NC4=O)C5=O)CC3)cc(N3CCCc4cc(-c5cnn(C)c5)c(C(F)F)cc43)c2C1` (centres unmarked) [Compound 2025, 5-[[8-[4-[2-acetyl-8-[7-(difluoromethyl)-6-(1-methylpyrazol-4-yl)-3,4-dihydro-2H-quinolin-1-yl]-3,4-dihydro-1H-isoquinolin-6-yl]-1-piperidinyl]-8-oxooctyl]amino]-2-(2,6-dioxo-3-piperidinyl)isoindoline-1,3-dione], the results for the IC50 in the assay on 22RV1 cells (Homo sapiens) and in the assay on vCap cells (Homo sapiens) were 3890 nM and 7530 nM, respectively.

As to `CNC(=O)N1CCc2cc(C3CCN(CC4CCN(CCCc5cccc6c5C(=O)N(C5CCC(=O)NC5=O)C6=O)CC4)CC3)cc(N3CCCc4cc(-c5cnn(C)c5)c(C(F)F)cc43)c2C1` (centres unmarked) [Compound 2022], the values for the IC50 with 22RV1 cells (Homo sapiens) and in the assay on vCap cells (Homo sapiens) were 0.3 nM and 2.12 nM, respectively.

`CC(=O)N1Cc2cc(C3CCN(CCN4CCOC(CNc5cccc6c5C(=O)N(C5CCC(=O)NC5=O)C6=O)C4)CC3)cc(N3CCCc4cc(-c5cnn(C)c5)c(C(F)F)cc43)c2C1` (centres unmarked) [Compound 2001]: the IC50 in the assay on 22RV1 cells (Homo sapiens) worked out at 0.06 nM; in the assay with vCap cells (Homo sapiens) it was 0.154 nM.

Take `CC(=O)N1Cc2cc(C3CCN(C(=O)CCCCCCCCNc4ccc5c(c4)n(C)c(=O)n5C4CCC(=O)NC4=O)CC3)cc(N3CCCc4cc(-c5cnn(C)c5)c(C(F)F)cc43)c2C1` (centres unmarked) [Compound 2009]: the IC50 in the assay with 22RV1 cells (Homo sapiens) was 0.04 nM; in the assay with vCap cells (Homo sapiens) it was 0.01 nM.

In the case of `CC(=O)N1Cc2cc(C3CCN(C(=O)CCCCC#Cc4ccc5c(c4)n(C)c(=O)n5C4CCC(=O)NC4=O)CC3)cc(N3CCCc4cc(-c5cnn(C)c5)c(C(F)F)cc43)c2C1` (centres unmarked) [Compound 2032, 3-{5-[7-(4-{2-acetyl-7-[7-(difluoromethyl)-6-(1-methylpyrazol-4-yl)-3,4-dihydro-2H-quinolin-1-yl]-1,3-dihydroisoindol-5-yl}piperidin-1-yl)-7-oxohept-1-yn-1-yl]-3-methyl-2-oxo-1,3-benzodiazol-1-yl}piperidine-2,6-dione], the results for the IC50 with 22RV1 cells (Homo sapiens) and in the assay on vCap cells (Homo sapiens) were 0.16 nM and 0.11 nM, respectively.

With `CNC(=O)N1CCc2cc(C3CCN(Cc4ccc(COc5cccc6c5CN(C5CCC(=O)NC5=O)C6=O)cc4)CC3)cc(N3CCCc4cc(-c5cnn(C)c5)c(C(F)F)cc43)c2C1` (centres unmarked) [Compound 2015, 8-(7-(difluoromethyl)-6-(1-methyl-1H-pyrazol-4-yl)-3,4-dihydroquinolin-1(2H)-yl)-6-(1-(4-(((2-(2,6-dioxopiperidin-3-yl)-1-oxoisoindolin-4-yl)oxy)methyl)benzyl)piperidin-4-yl)-N-methyl-3,4-dihydroisoquinoline-2(1H)-carboxamide], the IC50 came out at 0.05 nM in the assay with 22RV1 cells (Homo sapiens) and 0.01 nM in the assay on vCap cells (Homo sapiens).

In the assay on 22RV1 cells (Homo sapiens), `CC(=O)N1Cc2cc(C3CCC(N(C)C4CCN(c5ccc6c(c5)CN(C5CCC(=O)NC5=O)C6=O)CC4)CC3)cc(N3CCCc4cc(-c5cnn(C)c5)c(C(F)F)cc43)c2C1` (centres unmarked) [Compound 2079, 3-(5-((4-((2-acetyl-7-(7-(difluoromethyl)-6-(1-methyl-1H-pyrazol-4-yl)-3,4-dihydroquinolin-1(2H)-yl)isoindolin-5-yl)cyclohexyl)(methyl)amino)piperidin-1-yl)-1-oxoisoindolin-2-yl)piperidine-2,6-dione] had an IC50 of 3.76 nM.

For `CNC(=O)N1CCc2cc(C3CCN(CCN4CCOC(CNc5cccc6c5C(=O)N(C5CCC(=O)NC5=O)C6=O)C4)CC3)cc(N3CCCc4cc(-c5cnn(C)c5)c(C(F)F)cc43)c2C1` (centres unmarked) [Compound 2010], the IC50 with 22RV1 cells (Homo sapiens) was 0.08 nM; with vCap cells (Homo sapiens), 0.193 nM.

`CC(=O)N1Cc2cc(C3CCN(C(=O)Cn4cc(COc5cccc6c5CN(C5CCC(=O)NC5=O)C6=O)nn4)CC3)cc(N3CCCc4cc(-c5cnn(C)c5)c(C(F)F)cc43)c2C1` (centres unmarked) [Compound 2046]: the IC50 with 22RV1 cells (Homo sapiens) was determined as 14 nM. That is a double-digit nanomolar value.

`CNC(=O)N1CCc2cc(C3CCN(CCN4CCC(CCc5cccc6c5C(=O)N(C5CCC(=O)NC5=O)C6=O)CC4)CC3)cc(N3CCCc4cc(-c5cnn(C)c5)c(C(F)F)cc43)c2C1` (centres unmarked) [Compound 2014, 8-(7-(difluoromethyl)-6-(1-methylpyrazol-4-yl)-3,4-dihydro-2H-quinolin-1-yl)-6-[1-[2-[4-[2-[2-(2,6-dioxo-3-piperidinyl)-1,3-dioxoisoindolin-4-yl]ethyl]-1-piperidinyl]ethyl]-4-piperidinyl]-N-methyl-3,4-dihydro-1H-isoquinoline-2-carboxamide] registered an IC50 in the assay on vCap cells (Homo sapiens) of 11 nM.

Regarding `C=CC(=O)NC1CCC(n2c([C@@H]3CCCC(=O)N3c3ccc(F)c(F)c3)nc3cc(-c4c(C)noc4C)ccc32)CC1` (some centres unmarked) [Compound 1371], in the assay with 22RV1 cells, the IC50 was 2090 nM. This lies in the single-digit micromolar range.

The molecule `CC#CC(=O)N1CCC(n2nc(N3CCCc4cc(-c5cnn(C)c5)c(C(F)F)cc43)c3c2CCN(C(=O)NC)C3)CC1` [Compound 1376] came in with an IC50 with 22RV1 cells (Homo sapiens) of 2650 nM.

Take `CNC(=O)N1Cc2cc(C3CCN(C(=O)CCOCCOCCOCCOCCNc4ccc5c(c4)C(=O)N(C4CCC(=O)NC4=O)C5=O)CC3)cc(N3CCCc4cc(-c5cnn(C)c5)c(C(F)F)cc43)c2C1` (centres unmarked) [Compound 2023]: the IC50 in the assay on 22RV1 cells (Homo sapiens) turned out to be 434 nM.

`C=CC(=O)N1CCC(c2cc3c(c(N4CCCc5cc(-c6cnn(C)c6)c(C(F)F)cc54)c2)CN(C(=O)NC)CC3)CC1` [Compound 1346, 6-(1-acryloylpiperidin-4-yl)-8-(7-(difluoromethyl)-6-(1-methyl-1H-pyrazol-4-yl)-3,4-dihydroquinolin-1(2H)-yl)-N-methyl-3,4-dihydroisoquinoline-2(1H)-carboxamide]: in the assay with 22RV1 cells (Homo sapiens), the IC50 was 81800 nM.

`COC(=O)N1CCc2cc(C3CCN(C(=O)CCCCCCCNc4ccc5c(c4)C(=O)N(C4CCC(=O)NC4=O)C5=O)CC3)cc(N3CCCc4cc(-c5cnn(C)c5)c(C(F)F)cc43)c2C1` (centres unmarked) [Compound 2026, methyl 8-[7-(difluoromethyl)-6-(1-methylpyrazol-4-yl)-3,4-dihydro-2H-quinolin-1-yl]-6-[1-[8-[[2-(2,6-dioxo-3-piperidinyl)-1,3-dioxoisoindolin-5-yl]amino]octanoyl]-4-piperidinyl]-3,4-dihydro-1H-isoquinoline-2-carboxylate] returned an IC50 with 22RV1 cells (Homo sapiens) of 22.4 nM. Compared with the last molecule, the IC50 is about 3700-fold lower.

Regarding `CC(=O)N1Cc2cc(C3CCN(C(=O)CN4Cc5cc6c(cc5C4)C(=O)N(C4CCC(=O)NC4=O)C6=O)CC3)cc(N3CCCc4cc(-c5cnn(C)c5)c(C(F)F)cc43)c2C1` (centres unmarked) [Compound 2050], half-maximal inhibition in the assay on 22RV1 cells (Homo sapiens) (IC50) required 5.25 nM.

`CC(=O)N1Cc2cc(C3CCN(CCN4CCC(CNc5cccc6c5CN(C5CCC(=O)NC5=O)C6=O)CC4)CC3)cc(N3CCCc4cc(-c5cnn(C)c5)c(C(F)F)cc43)c2C1` (centres unmarked) [Compound 2061] had an IC50 in the assay on 22RV1 cells (Homo sapiens) of 3.48 nM.

On to `C=CS(=O)(=O)N[C@H]1CC[C@H](n2c([C@@H]3CCCC(=O)N3c3ccc(F)c(F)c3)nc3cc(-c4c(C)noc4C)ccc32)CC1` [Compound 1370], for which the midpoint of inhibition with 22RV1 cells (Homo sapiens), the IC50, lay at 1610 nM.

`CC(=O)N1Cc2cc(C3CCN(CCN4CCC(CCc5cccc6c5C(=O)N(C5CCC(=O)NC5=O)C6=O)CC4)CC3)cc(N3CCCc4cc(-c5cnn(C)c5)c(C(F)F)cc43)c2C1` (centres unmarked) [Compound 2005]: the IC50 in the assay with 22RV1 cells (Homo sapiens) was determined as 7.7 nM.

The molecule `CC(=O)N1Cc2cc(C3CCN(Cc4ccc(CCOc5cccc6c5CN(C5CCC(=O)NC5=O)C6=O)nc4)CC3)cc(N3CCCc4cc(-c5cnn(C)c5)c(C(F)F)cc43)c2C1` (centres unmarked) [Compound 2035, 3-[4-(2-{5-[(4-{2-acetyl-7-[7-(difluoromethyl)-6-(1-methylpyrazol-4-yl)-3,4-dihydro-2H-quinolin-1-yl]-1,3-dihydroisoindol-5-yl}piperidin-1-yl)methyl]pyridin-2-yl}ethoxy)-1-oxo-3H-isoindol-2-yl]piperidine-2,6-dione] came in with an IC50 with 22RV1 cells (Homo sapiens) of 2.6 nM. This IC50 is about 3-fold lower than that of the molecule before.

In the assay with 22RV1 cells (Homo sapiens), `CC(=O)N1Cc2cc(C3CCN(CC4CCN(CCNc5cccc6c5CN(C5CCC(=O)NC5=O)C6=O)CC4)CC3)cc(N3CCCc4cc(-c5cnn(C)c5)c(C(F)F)cc43)c2C1` (centres unmarked) [Compound 2060] yielded an IC50 of 6.8 nM.

As to `CC(=O)N1Cc2cc(C3CCN(CCN4Cc5cc6c(cc5C4)C(=O)N(C4CCC(=O)NC4=O)C6=O)CC3)cc(N3CCCc4cc(-c5cnn(C)c5)c(C(F)F)cc43)c2C1` (centres unmarked) [Compound 2059], in the assay with 22RV1 cells (Homo sapiens), the IC50 was 9.42 nM.
